Data as given in patent US20250041387A1, “POLYPEPTIDE SEQUENCE OF KDM6B AND APPLICATION OF KDM6B IN REGULATING AND CONTROLLING FUNCTION OF MESENCHYMAL STEM CELL” (BEIJING STOMATOLOGICAL HOSPITAL, CAPITAL MEDICAL UNIVERSITY, priority 2021, published 2025).

Tests used:
WDR5 synthetic protein = WDR5 synthetic protein (Homo sapiens, UniProt P61964); test: Polypeptide microarray of KDM6B incubated with biotin-labeled WDR5; type: binding; conditions: FIG. 3A, B; positive = optical density more than 30%
Text: • (1) Synthesis of polypeptide chip: A polypeptide chip was designed by overlapping and synthesized according to the sequence of KDM6B protein, with a total of two arrays. • (2) Synthesis of polypeptide microarray: A matrix membrane was activated, and placed on a fully automated polypeptide chip synthesizer. A Fmoc-amino acid solution was automatically transferred to a specific position on the activated membrane according to the set procedure, to react with the membrane. The membrane was immersed sequentially into the blocking solution I and II to block side chains, and washed with dimethyl formamide (DMF). The membrane was placed in a deprotection solution to remove the Fmoc protective group at the amino-terminal, then washed with DMF, and dried with ethanol. The above steps were repeated until all polypeptide microarrays were completely synthesized. After the synthesis was completed, the protective groups of the side chains were removed with specific organic reagents. […] The control group was incubated with the blocking solution. • (6) Streptavidin-HRP incubation: The reaction reagent Streptavidin-HRP (High Sensitivity Streptavidin-HRP (prod #21133)) was diluted with the blocking solution in an ratio of 1:10000, and then the polypeptide microarray chip was incubated with 5 ml of the diluted Streptavidin-HRP under shaking at room temperature for 2 hours, and washed. • (7) Color development: ECL luminescence reagent was added, and digital imaging was performed on a Chempchemi digital imager. • (8) Scan of polypeptide microarray chip and data analysis of color spot: The colored polypeptide microarray chip was imaged at 425 nm using the Chempchemi Imaging System with 200 s exposure. The optical density of colored spots was analyzed using TotalLab image analysis software, and the optical density of each colored spot was calculated using the “Spot Edge Average” algorithm in the software, with the optical density of the surrounding background of each colored spot as a reference. […]

[1] = target: KDM6B/WDR5 protein complex (Homo sapiens, UniProt P61964); test: Co-IP of KDM6B/WDR5 complex in bone marrow mesenchymal stem cells; type: cell-based; design: endogenous in cells; host or cells: bone marrow mesenchymal stem cells; conditions: FIG. 3C
Protocol: Protein was extracted from cells of knockout group and overexpression group using IP lysate. The knockout group cells SCAPs-Scramsh and SCAPs-KDM6Bsh, SCAPs-Scramsh and SCAPs-WDR5sh, BMSCs-Scramsh and BMSCs-WDR5sh were added with KDM6B antibody, WDR5 antibody, and IgG antibody, respectively, and then rotated on a shaker at 4° C. overnight. On the next day, the cells were added with Protein A/G beads and rotated on a rotary shaker at 4° C. for 2 hours. A complex of protein-antibody-agarose bead was formed, and the formation of a protein complex of KDM6B and WDR5WB was detected by WB. The overexpression group cells SCAPs-Vector, SCAPs-HA-KDM6B, SCAPs-HA-KDM6B-mut102, and SCAPs-HA-KDM6B-mut114 were added with ProteinA/G beads with HA antibody, and cells SCAPs Vector and SCAPs-Myc-WDR5 were added with ProteinA/G beads with Myc antibody. All cells were incubated overnight to form a complex of protein-antibody-agarose bead. The formation of a protein complex of KDM6B and WDR5 was detected by WB method. • (2) Grouping: Input group (loading amount of 25 μg); antibody group (loading amount of 800 μg, 2 μg of antibody); IgG group (loading amount of 800 μg, 2 μg of antibody). Samples were diluted with lysate. • (3) Preparation of protein A/G beads
The protein A/G beads were washed 4 times with PBS, and centrifuged at 2000 g for 2 minutes. The supernatant was carefully collected, and added with PBS to achieve a content of protein A/G beads of 50%. 30 μL of protein A/G beads was added to each tube, and rotated at 4 degrees overnight. • (4) The samples were centrifuged at 5000 rpm for 30 s at 4° C., and washed 4-5 times with PBS by inverted up and down. Then the samples were centrifuged, and the supernatant was discarded. The samples were added with 30 μL of 2× loading buffer, and placed at 100° C. for 5 minutes. • (5) The supernatant was subjected to electrophoresis.

## FITC-(Acp)-IVPMIHVSWNVARTVYGRKKRRQRRR [peptide 152]
WDR5 synthetic protein
  binding degree to WDR5 on polypeptide microarray (optical density of spots): higher binding degree
[1]
  opening/blocking of the binding of KDM6B/WDR5 protein complex (Co-IP): could not effectively block the binding
